We go through eleven compounds from US20240116985A1, “STAPLED PEPTIDES AND METHODS THEREOF” (priority 2020, published 2024).

A word on the pIC50: it is the negative decadic logarithm of the IC50, by convention in mol/L.

pIC50: −log10 of the molar value.

For the test, the target named is T1, full-length beta-Catenin (Uniprot ID P35222) (Homo sapiens, UniProt P35222).
T1 construct: 10 nM full-length beta-Catenin (Uniprot ID P35222)
T1 sequence (P35222 1-781): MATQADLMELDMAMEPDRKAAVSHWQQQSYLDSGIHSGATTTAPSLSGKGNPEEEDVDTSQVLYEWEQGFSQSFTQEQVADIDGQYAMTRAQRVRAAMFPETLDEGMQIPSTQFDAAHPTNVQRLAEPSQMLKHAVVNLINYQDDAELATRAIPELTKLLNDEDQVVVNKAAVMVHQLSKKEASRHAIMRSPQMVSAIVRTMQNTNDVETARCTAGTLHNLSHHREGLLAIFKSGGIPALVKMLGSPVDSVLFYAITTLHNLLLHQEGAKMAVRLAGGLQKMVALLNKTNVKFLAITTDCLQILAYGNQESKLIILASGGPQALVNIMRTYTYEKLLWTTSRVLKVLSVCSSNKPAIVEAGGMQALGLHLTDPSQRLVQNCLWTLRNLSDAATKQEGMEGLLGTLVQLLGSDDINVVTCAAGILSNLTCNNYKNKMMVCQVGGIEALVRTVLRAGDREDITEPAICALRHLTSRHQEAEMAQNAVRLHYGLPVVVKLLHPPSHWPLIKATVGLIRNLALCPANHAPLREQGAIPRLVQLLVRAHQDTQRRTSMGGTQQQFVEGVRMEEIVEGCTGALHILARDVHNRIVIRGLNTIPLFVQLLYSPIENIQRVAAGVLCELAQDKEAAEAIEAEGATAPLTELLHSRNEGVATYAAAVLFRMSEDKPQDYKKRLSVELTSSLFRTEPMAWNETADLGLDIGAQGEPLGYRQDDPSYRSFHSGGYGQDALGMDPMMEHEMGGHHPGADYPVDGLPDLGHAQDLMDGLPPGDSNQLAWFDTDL
Put plainly: Fluorescence polarization IC50 (beta-catenin / 5FAM-TCF4 10-53 competition). Type of test: binding. As to conditions: fluorescence polarization; read-out: beta-Catenin FP IC50. In general terms: Polarisation of emitted light reports the rotation of a fluorescent probe.

As to `CC(=O)N1CCC[C@]12CC=CCCCC1(CCCC=CCCCOC(=O)N3CC[C@@](C(=O)N[C@@H](Cc4ccccc4)C(=O)N[C@@H](Cc4csc5ccccc45)C(=O)N[C@@H](CCO)C(N)=O)(C3)NC(=O)[C@H](CC(N)=O)NC(=O)[C@H](Cc3cccc(Cl)c3)NC(=O)[C@H](C)NC(=O)[C@H](CCCCNC(C)C)NC(=O)[C@H](CCC(N)=O)NC(=O)[C@H](CC(=O)O)NC1=O)NC(=O)[C@H](CC1CCCCC1)NC(=O)[C@H](CC(N)=O)NC2=O` (stereo partly drawn) [I-1924, Ac-PL3-Asn-Cha-B5-Asp-Gln-iPrLys-Ala-3C1F-Asn-PyrS2-Phe-BztA-Hse-NH2], the pIC50 is 5.79. Take `CC(=O)N1CCC[C@]12CC=CCCCC1(CCCC=CCCCOC(=O)N3CC[C@@](C(=O)N[C@@H](Cc4ccccc4)C(=O)N[C@@H](Cc4csc5ccccc45)C(=O)N[C@@H](CCO)C(N)=O)(C3)NC(=O)[C@H](CC(N)=O)NC(=O)[C@H](Cc3cccc(C(N)=O)c3)NC(=O)[C@H](C)NC(=O)[C@H](CCCCNC(C)C)NC(=O)[C@H](CCC(N)=O)NC(=O)[C@H](CC(=O)O)NC1=O)NC(=O)[C@H](CC1CCCCC1)NC(=O)[C@H](CC(N)=O)NC2=O` (stereo partly drawn) [I-1925, Ac-PL3-Asn-Cha-B5-Asp-Gln-iPrLys-Ala-3cbmf-Asn-PyrS2-Phe-BztA-Hse-NH2]: the pIC50 was 6.32.

With `COc1cccc(C[C@@H]2NC(=O)[C@H](C)NC(=O)[C@H](CCCCNC(C)C)NC(=O)[C@H](CCC(N)=O)NC(=O)[C@H](CC(=O)O)NC(=O)C3(CCCC=CCCCOC(=O)N4CC[C@@](C(=O)N[C@@H](Cc5ccccc5)C(=O)N[C@@H](Cc5csc6ccccc56)C(=O)N[C@@H](CCO)C(N)=O)(C4)NC(=O)[C@H](CC(N)=O)NC2=O)CCCC=CC[C@]2(CCCN2C(C)=O)C(=O)N[C@@H](CC(N)=O)C(=O)N[C@@H](CC2CCCCC2)C(=O)N3)c1` (stereo partly drawn) [I-1926, Ac-PL3-Asn-Cha-B5-Asp-Gln-iPrLys-Ala-3OMeF-Asn-PyrS2-Phe-BztA-Hse-NH2], the pIC50 was 6.38.

Regarding `CC(=O)N1CCC[C@]12CC=CCCCC1(CCCC=CCCCOC(=O)N3CC[C@@](C(=O)N[C@@H](Cc4cccnc4)C(=O)N[C@@H](Cc4csc5ccccc45)C(=O)N[C@@H](CCO)C(N)=O)(C3)NC(=O)[C@H](CC(N)=O)NC(=O)[C@H](Cc3ccccc3)NC(=O)[C@H](C)NC(=O)[C@H](CCCCNC(C)C)NC(=O)[C@H](CCC(N)=O)NC(=O)[C@H](CC(=O)O)NC1=O)NC(=O)[C@H](CC1CCCCC1)NC(=O)[C@H](CC(N)=O)NC2=O` (stereo partly drawn) [I-1927, Ac-PL3-Asn-Cha-B5-Asp-Gln-iPrLys-Ala-Phe-Asn-PyrS2-3PyrA-BztA-Hse-NH2], the pIC50 was 5.29.

Take `CC(=O)N1CCC[C@]12CC=CCCCC1(CCCC=CCCCOC(=O)N3CC[C@@](C(=O)N[C@@H](Cc4cccc(Cl)c4)C(=O)N[C@@H](Cc4csc5ccccc45)C(=O)N[C@@H](CCO)C(N)=O)(C3)NC(=O)[C@H](CC(N)=O)NC(=O)[C@H](Cc3ccccc3)NC(=O)[C@H](C)NC(=O)[C@H](CCCCNC(C)C)NC(=O)[C@H](CCC(N)=O)NC(=O)[C@H](CC(=O)O)NC1=O)NC(=O)[C@H](CC1CCCCC1)NC(=O)[C@H](CC(N)=O)NC2=O` (stereo partly drawn) [I-1928, Ac-PL3-Asn-Cha-B5-Asp-Gln-iPrLys-Ala-Phe-Asn-PyrS2-3C1F-BztA-Hse-NH2]: the pIC50 is 6.05.

As to `COc1cccc(C[C@H](NC(=O)[C@]23CCN(C2)C(=O)OCCCC=CCCCC2(CCCC=CC[C@]4(CCCN4C(C)=O)C(=O)N[C@@H](CC(N)=O)C(=O)N[C@@H](CC4CCCCC4)C(=O)N2)C(=O)N[C@@H](CC(=O)O)C(=O)N[C@@H](CCC(N)=O)C(=O)N[C@@H](CCCCNC(C)C)C(=O)N[C@@H](C)C(=O)N[C@@H](Cc2ccccc2)C(=O)N[C@@H](CC(N)=O)C(=O)N3)C(=O)N[C@@H](Cc2csc3ccccc23)C(=O)N[C@@H](CCO)C(N)=O)c1` (stereo partly drawn) [I-1930, Ac-PL3-Asn-Cha-B5-Asp-Gln-iPrLys-Ala-Phe-Asn-PyrS2-3OMeF-BztA-Hse-NH2], the pIC50 is 5.81. The same measure for `CC(=O)N1CCC[C@]12CC=CCCCC1(CCCC=CCCCOC(=O)N3CC[C@@](C(=O)N[C@@H](Cc4ccccc4)C(=O)N[C@@H](Cc4csc5ccccc45)C(=O)N[C@@H](CCO)C(N)=O)(C3)NC(=O)[C@H](CC(N)=O)NC(=O)[C@H](Cc3ccccc3)NC(=O)[C@H](CO)NC(=O)[C@H](CCCCNC(C)C)NC(=O)[C@H](CCC(N)=O)NC(=O)[C@H](CC(=O)O)NC1=O)NC(=O)[C@H](CC1CCCCC1)NC(=O)[C@H](CC(N)=O)NC2=O` (stereo partly drawn) [I-1931, Ac-PL3-Asn-Cha-B5-Asp-Gln-iPrLys-Ser-Phe-Asn-PyrS2-Phe-BztA-Hse-NH2]: 5.81; for `CC(=O)N1CCC[C@]12CC=CCCCC1(CCCC=CCCCOC(=O)N3CC[C@@](C(=O)N[C@@H](Cc4ccccc4)C(=O)N[C@@H](Cc4csc5ccccc45)C(=O)N[C@@H](CCO)C(N)=O)(C3)NC(=O)[C@H](CC(N)=O)NC(=O)[C@H](Cc3ccccc3)NC(=O)[C@H](C)NC(=O)[C@H](CCCCNC(C)C)NC(=O)[C@H](CCC(N)=O)NC(=O)[C@H](CC(=O)O)NC1=O)NC(=O)[C@H](CC1CCCCC1)NC(=O)[C@H](CCO)NC2=O` (stereo partly drawn) [I-1932, Ac-PL3-Hse-Cha-B5-Asp-Gln-iPrLys-Ala-Phe-Asn-PyrS2-Phe-BztA-Hse-NH2]: 6.55.

As for `CC(=O)N1CCC[C@]12CC=CCCCC1(CCCC=CCCCOC(=O)N3CC[C@@](C(=O)N[C@@H](Cc4ccccc4)C(=O)N[C@@H](Cc4csc5ccccc45)C(=O)N[C@@H](CCO)C(N)=O)(C3)NC(=O)[C@H](CC(N)=O)NC(=O)[C@H](Cc3ccccc3)NC(=O)[C@H](C)NC(=O)[C@H](CCCCNC(C)C)NC(=O)[C@H](CCO)NC(=O)[C@H](CC(=O)O)NC1=O)NC(=O)[C@H](CC1CCCCC1)NC(=O)[C@H](CC(N)=O)NC2=O` (stereo partly drawn) [I-1933, Ac-PL3-Asn-Cha-B5-Asp-Hse-iPrLys-Ala-Phe-Asn-PyrS2-Phe-BztA-Hse-NH2], the pIC50 is 6.81. For the compound `CC(=O)N1CCC[C@]12CC=CCCCC1(CCCC=CCCCOC(=O)N3CC[C@@](C(=O)N[C@@H](Cc4ccsc4)C(=O)N[C@@H](Cc4csc5ccccc45)C(=O)N[C@@H](CCC(N)=O)C(N)=O)(C3)NC(=O)[C@H](CCC(=O)N3CCn4cncc4C3)NC(=O)[C@H](Cc3ccccc3)NC(=O)[C@H](C)NC(=O)[C@H](C)NC(=O)[C@H](CN(CC(=O)O)CC(F)(F)F)NC(=O)[C@H](CC(=O)O)NC1=O)NC(=O)[C@H](CC(C)(C)C)NC(=O)[C@H](CC(=O)O)NC2=O` (stereo partly drawn) [I-1934, Ac-PL3-Asp-Npg-B5-Asp-TfeGA-Ala-Ala-Phe-[H4IAP]GlnR-PyrS2-3Thi-BztA-Gln-NH2], the pIC50 was 8.30. Regarding `CC(=O)N1CCC[C@]12CC=CCCCC1(CCCC=CCCCOC(=O)N3CC[C@@](C(=O)N[C@@H](Cc4ccsc4)C(=O)N[C@@H](Cc4csc5ccccc45)C(=O)N[C@@H](CCC(N)=O)C(N)=O)(C3)NC(=O)[C@H](CCC(=O)N3CCC(N4CCN(C)CC4)CC3)NC(=O)[C@H](Cc3ccccc3)NC(=O)[C@H](C)NC(=O)[C@H](C)NC(=O)[C@H](CN(CC(=O)O)CC(F)(F)F)NC(=O)[C@H](CC(=O)O)NC1=O)NC(=O)[C@H](CC(C)(C)C)NC(=O)[C@H](CC(=O)O)NC2=O` (stereo partly drawn) [I-1937, Ac-PL3-Asp-Npg-B5-Asp-TfeGA-Ala-Ala-Phe-[4MePpzPip]GlnR-PyrS2-3Thi-BztA-Gln-NH2], the pIC50 was 8.05.
